Results: a melting point compilation (Tetko et al.; mined from patent text by program, amines drawn as free bases though some values may be those of a salt)

Row | Compound | melting point
1 | CC(C)(C)CC(=O)c1c(-c2ccc3c(Br)c(OCC(=O)O)ccc3c2)oc2ccccc12 | 151 to 153 °C
2 | CCOC(=O)CCCc1ccc(CCl)cc1 | 152 to 155 °C
3 | COC(=O)C(CCn1c(Cl)ccc1C(=O)c1ccc(Cl)cc1)C(=O)OC | 72.5 to 73.5 °C
4 | CC(C)(C)OC(=O)C1CCC(c2ccco2)N1C(=O)OC(C)(C)C (mixture of isomers) | 70 °C
5 | NC1([C@@H]2CCN(c3cc4c(cc3F)c(=O)c(C(=O)O)cn4[C@@H]3C[C@@H]3F)C2)CC1 | 240 to 242 °C
6 | CC12CCCC1C1CCc3cc(C(=O)O)ccc3C1CC2 (configuration not stated) | 235 to 240 °C
7 | Cc1cc(-c2ccc(C(F)(F)F)cc2)cc(-c2nc(-c3cccc(S(N)(=O)=O)c3)cs2)n1 | > 250 °C
8 | NS(=O)(=O)c1ccc(NN=C2C(=O)Nc3ccc(C(=O)NCCN4CCOCC4)cc32)cc1 | 210 to 212 °C
9 | COC(=O)c1ccc(Cn2c(=O)c3cc(C(=O)NCc4ccc(OC)cc4)sc3n(C)c2=O)cc1OC | 201 to 203 °C
10 | ClCc1c(Cl)c(Cl)c(Cl)c(Cl)c1CCl | 83 to 84 °C
11 | OC1(c2ccc3c(c2)OCO3)CCC2(CC1)OCCO2 | 95 to 96 °C
12 | CS(=O)(=O)NC(=O)N[C@H]1CCN(c2ccc3c(NC(=O)CC4CCCCC4)c(Cl)ccc3n2)C1 | 303 to 307 °C
13 | CCCc1c(OCC2COc3cc(CC(=O)OC)ccc3O2)ccc(C(C)=O)c1O (configuration not stated) | 72 to 75 °C
14 | CC(C)(C)c1cc(C(N)=NO)cc2c1OCC2(C)C | 109 to 110 °C
15 | Cc1nnc(C(CCN2CC3CC4CC(C3)CC2C4)(c2ccccc2)c2ccccc2)o1 | 120 to 121 °C
16 | CCOC(=O)CNc1cc(C(F)(F)F)ccc1C#N | 98 to 101 °C
17 | Nc1ccc2c(c1)C(=O)CC2 | 168 to 171 °C
18 | COc1cc(C(O)c2cccs2)cc([N+](=O)[O-])c1OC (configuration not stated) | 79 to 81 °C
19 | O=C(c1cccn1N1C(=O)c2ccccc2C1=O)C1CC1 | 150 to 152 °C
20 | CCCCCCCCCCCCCCCCCCC(N)(CO)CO | 76 to 80 °C
21 | CC(C#Cc1ccc(Oc2ccc(C(C)(C)C)cc2)o1)N(O)C(N)=O (configuration not stated) | 144 to 145 °C
22 | CN1CCN(S(=O)(=O)c2cc(-c3csc(=Nc4ccccc4)n3C)ccc2Cl)CC1 | 156 to 158 °C
23 | Cc1cc2c(cc1-c1ccncc1)C(=O)C(=O)N2 | 292 to 294 °C
24 | Cc1ccc(S(=O)(=O)c2ccc3c(c2)[C@@H](N2CCCC2=O)[C@H](O)C(C)(C)O3)cc1 (relative stereo) | 242 to 243 °C
25 | Nc1nc(=O)c2ccccc2n1Cc1ccc(F)cc1 | 170 °C
26 | Brc1cccc(-c2cn([C@H]3CN4CCC3CC4)nn2)c1 | 188 °C

Row | Compound | melting point
27 | COC(=O)c1nc(Br)nc(Br)c1Cl | 92 to 93 °C
28 | CC(COc1ccc2ccc(Oc3c(F)cc(C(F)(F)F)cc3Cl)cc2c1)=NO | 153 °C
29 | C/C(=C(\C#N)C(N)=S)N1CCCN(c2cccc(Cl)c2)CC1 | 133 to 134 °C
30 | COc1ccc(C2(O)CCSCC2)cc1OC1CCCC1 | 83 to 85 °C
31 | Fc1cc(Br)cc(CBr)c1 | 41 to 43 °C
32 | CN(C)C(C(=O)C1CCCCC1)C1(c2ccc(Cl)c(Cl)c2)CCC1 (configuration not stated) | 79 to 80 °C
33 | CC(C)c1ccc2[nH]c(C(=O)c3ccc(Cl)cc3)c(CC(=O)O)c2c1 | 197 to 200 °C
34 | S=c1n(CCc2ccc(-c3nnn[nH]3)cc2)ccn1C1CCc2ccccc2C1 (configuration not stated) | 218 to 220 °C
35 | COc1ccc(Oc2cccc(CCN(C)CCN(O)C(N)=O)c2)cc1 | 87 to 88.5 °C
36 | O=C(O)CCC(=O)c1ccc(O)c(Cl)c1 | 155 to 160 °C
37 | Oc1cccc(Oc2nnc(Cc3ccncc3)c3ccccc23)c1 | 206 to 207 °C
38 | CC(C)(CNC(=O)c1cc2cccc(NS(=O)(=O)c3cccs3)c2[nH]1)SCc1ccccc1 | 170 to 171 °C
39 | Nc1c(C(=O)c2cccc(Cl)c2)cc(Br)cc1[N+](=O)[O-] | 134 °C
40 | CC(C)C(=O)Nc1ccc(I)c(C(F)(F)F)c1 | 143 to 145 °C
41 | CCc1ccc2nc(C)[nH]c(=O)c2c1 | 165 to 185 °C
42 | COC(=O)c1cnn(C)c1Cl | 69 to 70 °C
43 | CC(C)n1cc(-c2nc(C(N)=O)c(N)nc2-c2ccccc2F)ccc1=O | 252 °C
44 | CCCCc1cnc(C2=NC(C)(C(C)C)C(=O)N2)c(C(=O)O)c1 (configuration not stated) | 152 to 154 °C
45 | CC(C)CCNC(=O)c1ccc(-c2nn(Cc3cccc(Cl)c3)c(=S)[nH]2)cc1 | 218 to 220 °C
46 | CC(C)(C)c1ccc(-c2c(Cl)c(CN3C(=O)CCC3=O)nc3sc4c(c23)CCNC4)cc1 | 210 to 212 °C
47 | CNC(=O)c1cnn(-c2ccc(Cl)cc2Cl)c1C#N | 182 to 183 °C
48 | CCCCCCNc1ncnc(N(C)C)c1N | 123 to 125 °C
49 | CC[C@H](Cn1cnnn1)n1cnc2cc3c(=O)n([C@H](C)Cn4ncnn4)nnc3cc2c1=O | 198 to 200 °C
50 | Cc1c(CC(=O)O)c2ccccc2c(=O)n1O | 198 to 200 °C
51 | Cc1ccc(C(C)N(O)C(=O)c2ccc(S(C)(=O)=O)cc2)o1 (configuration not stated) | 177 °C
52 | COCCOc1cc(NC(=O)OC(C)(C)C)c(N)cc1C#Cc1ccccc1 | 105 to 107 °C

Row | Compound | melting point
53 | O=C(OCc1ccccc1)c1ccc(OC(=O)c2ccc(O)c(C34CC5CC(CC(C5)C3)C4)c2)cc1 | 164 to 165 °C
54 | Cc1cc(NC(=O)C(C)(O)COc2cccc(Cl)c2)ccc1[N+](=O)[O-] (configuration not stated) | 104 to 107 °C
55 | Cc1nc(NC(=N)N)sc1C=O | 176 to 178 °C
56 | COc1cc(-c2cn3cccnc3n2)ccc1O | 230 to 233 °C
57 | COC(=O)COc1cc(C)c(SCc2sc(-c3ccc(C(F)(F)F)cc3)nc2C)c(C)c1 | 113 °C
58 | COc1ccc(-c2ccc(C3=NOC(CNC(C)=O)C3)cc2)ccc1=O (configuration not stated) | 104 to 105 °C
59 | CC(C)(C)OC(=O)N1CCn2c(c(C(=O)O)c(C#N)c2-c2ccccc2)C1 | 212 to 215 °C
60 | COC(=O)N1CCc2ccc(N)cc2CC1 | 100 to 104 °C
61 | Cc1cc(C(=O)N2CCCC(C)C2)ccc1[N+](=O)[O-] (configuration not stated) | 82 to 82.8 °C
62 | O=C(O)COC1Cc2sc(S(=O)(=O)C(c3ccccc3F)c3ccccc3F)nc2-c2ccccc21 (configuration not stated) | 204 to 208 °C
63 | O=c1nc(-c2ccccn2)sc2cc(Cl)ccc12 | 245 to 246 °C
64 | O=[N+]([O-])c1ccc2c(c1)CN(C(c1ccccc1)c1ccccc1)C2 | 154 to 155 °C
65 | COC(=O)c1cc(NCc2c(F)c(F)c(C(F)(F)F)c(F)c2F)ccc1O | 127 °C
66 | O=C(c1ccccc1Cl)c1cc(Cl)ccc1C(=O)C(Br)CN1C(=O)c2ccccc2C1=O (configuration not stated) | 178 to 179 °C
67 | O=[N+]([O-])c1ccc(Cl)c2cc[nH]c12 | 166 to 167 °C
68 | CCCOCCN(C)c1ccc(-c2ccc3c(c2)C=C(C(=O)Nc2ccc(CN(C)C4CCOCC4)cc2)CCS3(=O)=O)cc1 | 193 to 194 °C
69 | O=C(O)c1ccc(F)cc1Nc1ccc(I)cc1Cl | 238 to 239 °C
70 | Cn1nnc2ccc(C(c3cccs3)n3ccnc3)cc21 (configuration not stated) | 157 °C
71 | CCOC(=O)/C(=N\OC1CCCCCCC1)c1csc(N)n1 | 117 to 118 °C
72 | CCC1CC2CC(=O)OC3OC4(C)CCC(C1C)C23OO4 (single isomer, unassigned; (+)) | 155 to 157 °C
73 | COc1ccccc1C1(O)C(=O)Nc2ccc(C)c(Cl)c21 (configuration not stated) | 262 to 263 °C
74 | CC(=O)Nc1ccc(Sc2ccc(Br)cc2)cc1 | 153 to 155 °C
75 | O=C(O)c1cn(Cc2cnsn2)c2c(F)c(F)c(F)cc2c1=O | 220 to 222 °C
76 | CC(=O)N1Cc2c(-c3noc(C4CC4)n3)ncn2-c2ccccc21 | 187 to 188 °C
77 | Cc1cc(NS(=O)(=O)c2cccs2)c2[nH]c(C3=NCCS3)cc2c1 | 202 to 203 °C
78 | CCc1nc2c(cnn2CC)c(NC2CCOCC2)c1CNC(=O)c1cccc(C(=O)NCc2cc(Cl)cc(-c3cccc(CN4CC(C)NC(C)C4)c3)c2)c1 (configuration not stated) | 112 to 114 °C

Row | Compound | melting point
79 | CC(C)(C)OC(=O)NC(Cc1ccccc1)C(O)CNCC(O)C(Cc1cccc(OCc2ccccc2)c1)NC(=O)OC(C)(C)C (configuration not stated) | 125 to 145 °C
80 | CSc1nn2c(N)c3c(nc2c1S(=O)(=O)c1ccccc1)CCC3 | > 230 °C
81 | COc1ccc2c(c1)OCC(c1ccccc1)C2c1ccc(OCCN2CCCC2)cc1 (configuration not stated) | 113 to 114 °C
82 | O=C(NC1CCSCC1)c1cnccc1C(F)(F)F | 161 to 163 °C
83 | CCOC(=O)c1cc(OC)c2c(C)c(CCN(CC)CC)c(=O)oc2c1Br | 150 to 151 °C
84 | Cc1nc(Cl)c2cc(C)oc2n1 | 47.6 to 48.1 °C
85 | C[C@@H](n1cnc2cc(F)ccc2c1=O)[C@](O)(Cn1cncn1)c1ccc(F)cc1F | 106 to 107 °C
86 | O=C(O)CCCCCOc1ccccc1C(=O)c1ccccc1O | 89 to 91 °C
87 | CC(C)(C)C1Cc2cc(N3C[C@H](CO)OC3=O)ccc2N1C(=O)OCc1ccccc1 (some centres not stated) | 141 to 149 °C
88 | CC(C)(C)OC(=O)N1CC(CC=O)C1 | 52 to 54 °C
89 | CCOC(=O)C1CCn2c1cc(C)c2C(=O)c1ccc2n1CCS2 (configuration not stated) | 146 to 148 °C
90 | CC1(C)C=C(c2cccc(C(F)(F)F)c2)c2ccc(O)cc2O1 | 102 to 106 °C
91 | O=c1c2ccccc2sc(-c2ccncc2)[n+]1[O-] | 248 to 252 °C
92 | O=C(Cl)N1c2ccccc2C=Cc2ccccc21 | 145 to 150 °C
93 | COc1ccc(NC(=O)c2ccc(F)c(F)c2)cc1NS(=O)(=O)c1ccc(N)cc1 | 229 to 231 °C
94 | COC(=O)CCC(=O)c1ccc2c(c1)CC(CCNC(C)=O)C2 (configuration not stated) | 96 to 97 °C
95 | COC(=O)c1sc2cc(CO)ccc2c1C | 121 to 123 °C
96 | CNC(=O)C(Cc1c[nH]c2ccccc12)NC(=O)C(CC(C)C)C(S)CC(=O)OC (configuration not stated) | 73 to 75 °C
97 | Cc1cc([N+](=O)[O-])c(C)nc1OC(F)F | 48 to 49 °C
98 | CSCc1c(C(F)(F)F)nn(C)c1O | 123 to 124 °C
99 | COc1ccc(C2=NN(c3ccc(OCCCCBr)cc3)C(=O)[C@@H]3CC=CC[C@H]23)cc1OC | 38 to 43 °C
100 | CC(=O)OC1CC2=CCC3C4CCC(C(C)CCCC(C)C)C4(C)CCC3C2(C)C(O)C1O (configuration not stated) | 131 to 133 °C
101 | CCOC(=O)Cn1cccc(O)c1=O | 141 to 151 °C
102 | COc1ccc(C2=CC(=O)CCC2)cc1 | 83 to 85 °C
